Experimental data: patent US6384173B1, “Silicone functionalized triclosan” (Siltech LLC, priority 2001, dated 2002)
Read-outs that look alike come from different tables or passages of the source.

Legend:
[1] = Thermal Gravimetric Analysis (weight percent lost); format: physicochemical; conditions: Perkin-Elmer TGA 7, temperature scanned from 40 to 250 degrees at 20 degree C./minute, at completion of scan
Experimental: Thermal Gravimetric Analysis
Measurements were obtained of the weight percent lost for the samples below using a Perkin-Elmer TGA 7 where the temperature was scanned from 40° to 250° at 20° C./minute. At the completion of the temperature scan for each, the following results were obtained: […]

[2] = TGA, 40 to 250 degrees at 20 degree C./minute; value marked (U.S. Pat. No. 6,197,072); cited from earlier work

With `Oc1cc(Cl)ccc1Oc1ccc(Cl)cc1Cl` [Triclosan, triclosan] the “% Weight Loss” value [1] was 62%.

In the case of Triclosan Acetate, the “% Weight Loss” value [2] is given as 12 (U.S. Pat. No. 6,197,072) %.
